Reference: ChEMBL document CHEMBL5223109, “The discovery of BMS-737 as a potent, CYP17 lyase-selective inhibitor for the treatment of castration-resistant prostate cancer” (Bioorg Med Chem Lett, 2022)
pIC50: −log10 of the molar value.

Legend:
[1] = Metabolic stability in human liver microsomes assessed as parent compound remaining relative to control; assay type: ADME, Microsome; note: time not given here
Cytochrome P450 1A2 = target: T1, Cytochrome P450 1A2 (Homo sapiens, UniProt P05177); experiment: Inhibition of CYP1A2 (unknown origin); assay type: ADME
T1 sequence (P05177 whole entry): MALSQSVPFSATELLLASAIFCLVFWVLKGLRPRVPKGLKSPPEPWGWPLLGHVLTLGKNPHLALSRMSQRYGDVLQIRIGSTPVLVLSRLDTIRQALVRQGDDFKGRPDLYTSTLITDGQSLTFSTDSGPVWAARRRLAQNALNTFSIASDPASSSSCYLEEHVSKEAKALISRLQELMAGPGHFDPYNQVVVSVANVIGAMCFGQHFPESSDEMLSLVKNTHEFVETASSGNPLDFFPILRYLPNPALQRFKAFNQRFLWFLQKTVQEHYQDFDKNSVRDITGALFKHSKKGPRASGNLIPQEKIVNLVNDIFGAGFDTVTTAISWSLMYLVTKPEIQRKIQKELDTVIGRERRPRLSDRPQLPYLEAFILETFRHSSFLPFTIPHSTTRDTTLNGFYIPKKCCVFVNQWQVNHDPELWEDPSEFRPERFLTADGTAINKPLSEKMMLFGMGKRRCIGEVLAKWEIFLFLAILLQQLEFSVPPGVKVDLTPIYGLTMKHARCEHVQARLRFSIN

[2] = target: T2, Steroid 17-alpha-hydroxylase/17,20 lyase (Homo sapiens, UniProt P05093); experiment: Inhibition of human CYP17A1; assay type: ADME
T2 sequence (P05093 whole entry): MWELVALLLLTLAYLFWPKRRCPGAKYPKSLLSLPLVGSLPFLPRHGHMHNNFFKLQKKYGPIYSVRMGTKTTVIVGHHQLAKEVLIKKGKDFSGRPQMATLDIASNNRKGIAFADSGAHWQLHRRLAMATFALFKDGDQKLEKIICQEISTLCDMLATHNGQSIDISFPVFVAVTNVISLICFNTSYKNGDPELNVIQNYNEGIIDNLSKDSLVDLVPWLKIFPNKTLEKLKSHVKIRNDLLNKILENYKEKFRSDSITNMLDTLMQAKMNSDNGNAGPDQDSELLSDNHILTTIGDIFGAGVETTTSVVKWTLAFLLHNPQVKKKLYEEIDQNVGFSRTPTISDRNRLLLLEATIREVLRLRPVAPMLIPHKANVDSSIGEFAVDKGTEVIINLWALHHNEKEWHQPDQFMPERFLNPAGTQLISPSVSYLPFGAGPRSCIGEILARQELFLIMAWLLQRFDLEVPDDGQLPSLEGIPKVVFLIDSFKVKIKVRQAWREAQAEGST

[3] = Metabolic stability in mouse liver microsomes assessed as parent compound remaining; assay type: ADME, Microsome; note: time not given here
[4] = Metabolic stability in rat liver microsomes assessed as parent compound remaining; assay type: ADME, Microsome; note: time not given here
[5] = target: T2, Steroid 17-alpha-hydroxylase/17,20 lyase; experiment: Selectivity ratio for inhibition of human CYP17A1 hydroxylase activity to inhibition of human CYP17A1 lyase activity; assay type: ADME

Stability [1] [%] | pIC50 (Cytochrome P450 1A2) | pIC50 [2] | Stability [3] [%] | Stability [4] [%] | SMILES | Ratio [5]
64 | 6.21 | 7.04 | 42 | 48 | Cc1ccncc1-c1ccnc2c1cnn2-c1nccs1 | 
88 | 4.78 | 8.30 | 25 | 26 | Cc1ccncc1-c1ccnc2c1cnn2-c1ncccc1Cl | 7
76 | 6.55 | 7.57 | 4 | 9 | Cc1ccncc1-c1ccnc2c1cnn2-c1cccc(F)c1 | 36
100 | < 4.40 |  | 70 | 100 | Nc1ncncc1-c1ccnc2c1cnn2-c1ccccn1 | 
100 | 6.42 | 8.22 | 27 | 43 | Cc1ccncc1-c1ccnc2c1cnn2-c1ccc(F)cc1 | 43
85 | 6.18 | 7.62 | 2 | 37 | Cc1ccncc1-c1ccnc2c1cnn2-c1ccc(F)c(Cl)c1 | 10
 | < 4.40 | 8.30 | 82 | 87 | Nc1ncncc1-c1ccnc2c1cnn2-c1c(F)cc(F)cc1F | 3
80 | 6.49 | 8.30 | 5 | 7 | Cc1ccncc1-c1ccnc2c(-c3ccccc3)noc12 | 
79 | 7.47 | 8.70 | 6 | 3 | Cc1ccncc1-c1cccc2c(-c3ccccc3)cnn12 | 
100 | 5.28 | 8.05 | 37 | 18 | Cc1ccncc1-c1ccnc2c1cnn2-c1ccc(F)cc1F | 19
70 | 6.74 | 8.30 | 7 | 3 | Cc1ccncc1-c1ccnn2c(-c3ccccc3)ccc12 | 
100 | < 4.40 | 7.00 | 95 | 89 | Nc1ncncc1-c1ccnc2c1cnn2-c1cccc(S(N)(=O)=O)c1 | 
 | < 4.40 | < 6.00 |  |  | Cc1ccncc1-c1ccnc2c1cnn2C | 
98 | < 4.40 | 7.96 | 92 | 100 | Nc1ncncc1-c1ccnc2c1cnn2-c1ccc(F)cc1F | 6
98 |  | 7.96 | 62 | 84 | Nc1ncncc1-c1ccnc2c1cnn2-c1ncccc1C(F)(F)F | 4
77 | 5.32 | 7.85 | 2 | 0.2 | COc1c(F)cccc1-n1ncc2c(-c3cnccc3C)ccnc21 | 7
100 | < 4.40 | 7.85 | 68 | 94 | Nc1ncncc1-c1ccnc2c1cnn2-c1ccc(F)cc1C(F)(F)F | 3
99 | 4.57 | 8.30 | 3 | 0.2 | Nc1ccncc1-c1ccnc2c1cnn2-c1ccc(F)cc1 | 7
85 | < 4.40 | 8.40 | 62 | 35 | Fc1ccc(-n2ncc3c(-c4cncnc4N4CC(F)(F)C4)ccnc32)cc1 | 3
85 | 6.18 | 7.64 | 55 | 78 | Fc1ccc(-n2ncc3c(-c4cncnc4C4CC4)ccnc32)cc1 | 13

Stability [1] [%] | pIC50 (Cytochrome P450 1A2) | pIC50 [2] | Stability [3] [%] | Stability [4] [%] | SMILES | Ratio [5]
74 | 5.06 | 8.40 | 14 | 0.9 | Cc1ccncc1-c1ccnc2c1cnn2-c1ccc(F)cc1Cl | 3
88 | 5.67 | 6.85 | 56 | 63 | Fc1ccc(-n2ncc3c(-c4cncnc4C(F)(F)F)ccnc32)cc1 | 
 | 5.29 | 6.10 |  |  | Cc1ccncc1-c1ccnc2c1cnn2Cc1ccc(F)cc1 | 
88 | 4.81 | 8.05 | 2 | 1 | COc1ccccc1-n1ncc2c(-c3cnccc3C)ccnc21 | 
92 | 4.95 |  | 41 | 30 | Cc1ccncc1-c1ccnc2c1cnn2CC(F)(F)F | 12
42 | 5.33 | 8.10 | 3 | 40 | Fc1ccc(-n2ncc3c(-c4cncnc4NCC(F)(F)F)ccnc32)cc1 | 3
62 | 6.85 | 8.10 | 2 | 0.8 | Cc1ccncc1-c1cccc2c1OCCN2c1ccccc1 | 
100 | 6.50 |  | 26 | 47 | Cc1ccncc1-c1ccnn2c(-c3ccccc3)cnc12 | 
65 | 6.60 | 8.00 | 2 | 3 | Cc1ccncc1-c1ccnc2c(-c3ccccc3)csc12 | 
72 | 5.63 | < 6.00 | 1 | 12 | Fc1ccc(-n2ncc3c(-c4cncn5cccc45)ccnc32)cc1 | 13
84 | 6.87 | 8.52 | 3 | 2 | Cc1ccncc1-c1cccc2c(-c3ccccc3)csc12 | 
86 | 6.14 | 7.96 | 58 | 32 | COc1ccncc1-c1ccnc2c1cnn2-c1ccc(F)cc1 | 10
 | 5.28 | 7.04 | 15 | 16 | Cc1ccncc1-c1ccnc2c1cnn2C(C)(C)C | 
21 | 5.83 | 8.52 | 37 | 6 | COc1cccc(-n2ncc3c(-c4cnccc4C)ccnc32)c1 | 
 | 5.56 |  |  |  | Cc1ncncc1-c1ccnc2c1cnn2-c1ccc(F)cc1 | 4
100 | 7.24 |  | 37 | 56 | Cn1cncc1-c1ccnc2c1cnn2-c1ccc(F)cc1 | 30
73 | 6.25 | 8.15 | 7 | 4 | Cc1ccncc1-c1ccnc2c1cnn2-c1ccccc1 | 
67 | 4.96 | 7.34 | 7 | 27 | Fc1ccc(-n2ncc3c(-c4cncnc4NC4CC4)ccnc32)cc1 | 6
 | 6.67 | 7.02 |  |  | Fc1ccc(-n2ncc3c(-c4cccnc4)ccnc32)cc1 | 
80 | 7.55 | 9.00 | 5 | 6 | Cc1ccncc1-c1cccc2c(-c3ccccc3)noc12 | 
